Experimental data taken from ChEMBL document CHEMBL5226286, “The application of isatin-based multicomponent-reactions in the quest for new bioactive and druglike molecules” (Eur J Med Chem, 2021).
pIC50: −log10 of the molar value. Converted amounts (≈) assume the structure as drawn.

Key:
[1] = tested on: A549; test: Cytotoxicity against human A549 cells incubated for 48 hrs by MTT assay; assay type: functional, cell-based; details: A549, 48 h
[2] = tested on: HeLa; test: Cytotoxicity against human HeLa cells incubated for 48 hrs by MTT assay; assay type: functional, cell-based
[3] = tested on: MCF7; test: Cytotoxicity against human MCF7 cells incubated for 48 hrs by MTT assay; assay type: functional, cell-based; details: MCF7, 48 h
[4] = tested on: DU-145; test: Cytotoxicity against human DU-145 cells incubated for 48 hrs by MTT assay; assay type: functional, cell-based; details: DU-145, 48 h
[5] = tested on: Bacillus subtilis; test: Antibacterial activity against Bacillus subtilis ATCC 465; assay type: functional
[6] = tested on: Bacillus pumilus; test: Antibacterial activity against Bacillus pumilus PTCC 1114; assay type: functional
[7] = tested on: Micrococcus luteus; test: Antibacterial activity against Micrococcus luteus PTCC 1110; assay type: functional
[8] = tested on: Streptococcus mutans; test: Antibacterial activity against Streptococcus mutans PTCC 1601; assay type: functional
[9] = tested on: Staphylococcus epidermidis; test: Antibacterial activity against Staphylococcus epidermidis ATCC 12228; assay type: functional
[10] = tested on: Staphylococcus aureus; test: Antibacterial activity against Staphylococcus aureus ATCC 25923; assay type: functional
[11] = tested on: Escherichia coli; test: Antimicrobial activity against Escherichia coli ATCC 25922; assay type: functional
[12] = tested on: Enterococcus faecalis; test: Antibacterial activity against Enterococcus faecalis ATCC 29737; assay type: functional
[13] = tested on: Klebsiella pneumoniae; test: Antibacterial activity against Klebsiella pneumoniae ATCC 29655; assay type: functional
[14] = tested on: Pseudomonas aeruginosa; test: Antibacterial activity against Pseudomonas aeruginosa ATCC 85327; assay type: functional
[15] = tested on: Escherichia coli; test: Antibacterial activity against Escherichia coli assessed as zone of inhibition; assay type: functional
[16] = tested on: Staphylococcus aureus; test: Antibacterial activity against Staphylococcus aureus assessed as zone of inhibition; assay type: functional
[17] = tested on: A549; test: Anticancer activity against human A549 cells by MTT assay; assay type: functional, cell-based
[18] = tested on: K562; test: Anticancer activity against human K562 cells by MTT assay; assay type: functional, cell-based
[19] = tested on: Aspergillus niger; test: Antifungal activity against Aspergillus niger assessed as zone of inhibition at 25 ug/ml; assay type: functional; details: read-out: DIZ
[20] = tested on: Candida metapsilosis; test: Antifungal activity against Candida metapsilosis assessed as zone of inhibition at 25 ug/ml; assay type: functional; details: Lodderomyces metapsilosis, read-out: DIZ
[21] = target: Acetylcholinesterase (Homo sapiens, UniProt P22303); test: Inhibition of AChE (unknown origin)
[22] = target: Cholinesterase (Homo sapiens, UniProt P06276); test: Inhibition of BChE (unknown origin)
[23] = tested on: MDA-MB-231; test: cells; assay type: functional, cell-based; details: Homo sapiens
Description: Antiproliferative activity against human MDA-MB-231 cells

[24] = tested on: HeLa; test: Antiproliferative activity against human HeLa cells; assay type: functional, cell-based
[25] = tested on: Salmonella sp.; test: Antibacterial activity against Salmonella sp. NCIM 2501 by microdilution broth method; assay type: functional
[26] = tested on: Proteus vulgaris; test: Antibacterial activity against Proteus vulgaris NCIM 2813 by microdilution broth method; assay type: functional
[27] = tested on: Pseudomonas aeruginosa; test: Antibacterial activity against Pseudomonas aeruginosa NCIM 5029 by microdilution broth method; assay type: functional
[28] = tested on: Escherichia coli; test: Antibacterial activity against Escherichia coli NCIM 2931 by microdilution broth method; assay type: functional
[29] = tested on: Staphylococcus aureus; test: Antibacterial activity against Staphylococcus aureus NCIM5021 by microdilution broth method; assay type: functional
[30] = tested on: Candida albicans; test: Antifungal activity against Candida albicans; assay type: functional
[31] = tested on: Candida tropicalis; test: Antifungal activity against Candida tropicalis; assay type: functional
[32] = tested on: Nakaseomyces glabratus; test: Antifungal activity against Candida glabrata; assay type: functional

Chain of Acetylcholinesterase (P22303 whole entry): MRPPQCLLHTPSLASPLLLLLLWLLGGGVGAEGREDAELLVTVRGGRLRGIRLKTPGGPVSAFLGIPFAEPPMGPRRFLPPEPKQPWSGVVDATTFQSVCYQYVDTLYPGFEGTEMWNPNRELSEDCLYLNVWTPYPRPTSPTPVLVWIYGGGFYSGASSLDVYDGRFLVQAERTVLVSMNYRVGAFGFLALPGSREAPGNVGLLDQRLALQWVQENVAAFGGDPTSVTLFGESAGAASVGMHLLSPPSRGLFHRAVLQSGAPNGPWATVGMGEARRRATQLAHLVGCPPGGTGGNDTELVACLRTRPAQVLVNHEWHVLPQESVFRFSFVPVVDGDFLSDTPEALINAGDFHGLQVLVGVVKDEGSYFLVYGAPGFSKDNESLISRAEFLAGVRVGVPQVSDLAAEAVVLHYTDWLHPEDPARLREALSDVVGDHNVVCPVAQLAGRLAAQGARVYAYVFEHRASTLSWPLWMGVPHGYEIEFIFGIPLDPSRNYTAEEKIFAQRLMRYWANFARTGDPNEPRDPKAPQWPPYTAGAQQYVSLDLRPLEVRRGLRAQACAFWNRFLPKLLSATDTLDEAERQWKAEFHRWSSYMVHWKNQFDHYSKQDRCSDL
Chain of Cholinesterase (P06276 whole entry): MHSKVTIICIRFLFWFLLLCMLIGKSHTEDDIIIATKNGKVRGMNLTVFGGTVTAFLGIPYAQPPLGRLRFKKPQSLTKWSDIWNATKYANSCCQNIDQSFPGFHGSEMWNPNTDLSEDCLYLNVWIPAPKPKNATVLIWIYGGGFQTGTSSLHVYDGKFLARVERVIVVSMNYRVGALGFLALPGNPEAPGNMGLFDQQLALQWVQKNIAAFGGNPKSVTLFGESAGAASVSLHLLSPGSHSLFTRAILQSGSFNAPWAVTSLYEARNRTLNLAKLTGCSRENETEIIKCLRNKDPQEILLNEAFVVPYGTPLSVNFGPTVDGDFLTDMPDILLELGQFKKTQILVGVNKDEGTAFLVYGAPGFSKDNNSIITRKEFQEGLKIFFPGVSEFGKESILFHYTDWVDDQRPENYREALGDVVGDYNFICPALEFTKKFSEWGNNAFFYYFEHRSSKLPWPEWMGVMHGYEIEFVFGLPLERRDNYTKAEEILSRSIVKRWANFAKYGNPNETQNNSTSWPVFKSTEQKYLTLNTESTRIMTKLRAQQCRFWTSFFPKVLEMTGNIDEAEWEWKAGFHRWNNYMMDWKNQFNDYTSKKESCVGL

## COc1cc([C@@H]2c3cc4c(cc3[C@@H](O[C@@H]3O[C@@H]5CO[C@@H](C)O[C@H]5[C@H](O)[C@H]3O)[C@H]3COC(=O)[C@H]23)OCO4)cc(OC)c1O [ETOPOSIDE]
[1]
  pIC50: 5.66
[2]
  pIC50: 6.00
[3]
  pIC50: 5.80
[4]
  pIC50: 5.68

## O=C1c2c(Cl)cccc2NC2(C(=O)Nc3ccc([N+](=O)[O-])cc32)N1Nc1ccccc1 (stereo unspecified)
[5]
  MIC: < 2 µg/mL
[6]
  MIC: < 2 µg/mL
[7]
  MIC: 2 µg/mL (≈ 4.59 µM)
[8]
  MIC: 8 µg/mL (≈ 18.4 µM)
[9]
  MIC: 2 µg/mL (≈ 4.59 µM)
[10]
  MIC: 2 µg/mL (≈ 4.59 µM)
[11]
  MIC: < 2 µg/mL
[12]
  MIC: 8 µg/mL (≈ 18.4 µM)
[13]
  MIC: 16 µg/mL (≈ 36.7 µM)
[14]
  MIC: 16 µg/mL (≈ 36.7 µM)

## O=C1OCC2=C1C1(Nc3ccc(Cl)cc3N2)C(=O)Nc2ccccc21 (stereo unspecified)
[1]
  pIC50: 5.54
[2]
  pIC50: 5.27
[3]
  pIC50: 5.02
[4]
  pIC50: 5.77

## CCOC1=Nc2ccccc2/C1=C\C(=O)c1ccc(Cl)cc1
[15]
  diameter of the inhibition zone (DIZ): 6 mm
[16]
  diameter of the inhibition zone (DIZ): 6 mm

## CC(C)=CC(=O)[C@H]1[C@H](c2ccc(Br)cc2)CN(C)[C@]12C(=O)Nc1ccc(Br)cc12
[17]
  pIC50: 4.64
[18]
  pIC50: 5.24

## CC(C)=CC(=O)[C@H]1[C@H](c2ccc(Br)cc2)CN(C)[C@]12C(=O)Nc1ccc(C)cc12
[17]
  pIC50: 4.68
[18]
  pIC50: 5.24

## O=C1c2ccccc2NC2(C(=O)Nc3ccc([N+](=O)[O-])cc32)N1Nc1ccccc1 (stereo unspecified)
[5]
  MIC: 4 µg/mL (≈ 9.97 µM)
[6]
  MIC: 4 µg/mL (≈ 9.97 µM)
[7]
  MIC: 8 µg/mL (≈ 19.9 µM)
[8]
  MIC: < 2 µg/mL
[9]
  MIC: 4 µg/mL (≈ 9.97 µM)
[10]
  MIC: 4 µg/mL (≈ 9.97 µM)
[11]
  MIC: 4 µg/mL (≈ 9.97 µM)
[12]
  MIC: 16 µg/mL (≈ 39.9 µM)
[13]
  MIC: 8 µg/mL (≈ 19.9 µM)
[14]
  MIC: 32 µg/mL (≈ 79.7 µM)

## O=C1c2c(Cl)cccc2NC2(C(=O)Nc3ccc(Br)cc32)N1Nc1ccccc1 (stereo unspecified)
[5]
  MIC: 4 µg/mL (≈ 8.52 µM)
[6]
  MIC: < 2 µg/mL
[7]
  MIC: 4 µg/mL (≈ 8.52 µM)
[8]
  MIC: < 2 µg/mL
[9]
  MIC: 2 µg/mL (≈ 4.26 µM)
[10]
  MIC: 2 µg/mL (≈ 4.26 µM)
[11]
  MIC: < 2 µg/mL
[12]
  MIC: < 2 µg/mL
[13]
  MIC: 4 µg/mL (≈ 8.52 µM)
[14]
  MIC: 8 µg/mL (≈ 17 µM)

## CCOC1=Nc2ccccc2/C1=C\C(=O)c1ccc([N+](=O)[O-])cc1
[19]
  zone of inhibition at 25 µg/mL: 11 mm
[20]
  zone of inhibition at 25 µg/mL: 11 mm

## COc1cccc([C@@H]2[C@H](Cc3c[nH]c4ccccc34)NC3(C(=O)Nc4ccccc43)[C@@]23Cc2cc(OC)c(OC)cc2C3=O)c1 (stereo partly specified)
[21]
  pIC50: 5.64
[22]
  pIC50: 5.08

## O=C1OCC2=C1C1(Nc3ccccc3N2)C(=O)N(Cc2ccccc2)c2ccccc21 (stereo unspecified)
[1]
  pIC50: 5.89
[2]
  pIC50: 5.64
[3]
  pIC50: 5.66
[4]
  pIC50: 5.96

## CCOC1=Nc2ccc(Br)cc2/C1=C\C(=O)c1ccccc1O
[19]
  zone of inhibition at 25 µg/mL: 11 mm
[20]
  zone of inhibition at 25 µg/mL: 11 mm

## Cc1ccc2c(c1)C1(Nc3ccccc3NC3=C1C(=O)OC3)C(=O)N2 (stereo unspecified)
[1]
  pIC50: 5.82
[2]
  pIC50: 5.02
[3]
  pIC50: 5.68
[4]
  pIC50: 5.89

## CC(C)=CC(=O)[C@H]1[C@H](c2ccc(F)cc2)CN(C)[C@]12C(=O)N(C)c1ccccc12
[17]
  pIC50: 4.72
[18]
  pIC50: 5.14

## CCOC1=Nc2ccc(Br)cc2/C1=C\C(=O)c1cccc2ccccc12
[15]
  diameter of the inhibition zone (DIZ): 6 mm
[16]
  diameter of the inhibition zone (DIZ): 6 mm

## N#CC1=C(N)Oc2c(ccc3[nH]c4ccccc4c23)C12C(=O)N(Cc1cn(Cc3ccc(C(F)(F)F)cc3)nn1)c1ccccc12 (stereo unspecified)
[23]
  pIC50: 4.21
[24]
  pIC50: 5.46

## CCOC1=Nc2ccc(Br)cc2/C1=C\C(=O)c1ccccc1
[15]
  diameter of the inhibition zone (DIZ): 6 mm
[16]
  diameter of the inhibition zone (DIZ): 7 mm

## CC(=O)O[C@H]1C(=O)[C@@]2(C)[C@H]([C@H](OC(=O)c3ccccc3)[C@]3(O)C[C@H](OC(=O)[C@H](O)[C@@H](NC(=O)c4ccccc4)c4ccccc4)C(C)=C1C3(C)C)[C@]1(OC(C)=O)CO[C@@H]1C[C@@H]2O [PACLITAXEL]
[23]
  pIC50: 7.00
[24]
  pIC50: 8.22

## O=C1Nc2ccccc2[C@@]1(O)[C@@]1(OCc2ccc(Cl)cc2)C(=O)Nc2ccccc21
[25]
  MIC: 0.074 µg/mL (≈ 0.176 µM)
[26]
  MIC: 0.149 µg/mL (≈ 0.354 µM)
[27]
  MIC: 0.074 µg/mL (≈ 0.176 µM)
[28]
  MIC: 0.074 µg/mL (≈ 0.176 µM)
[29]
  MIC: 0.149 µg/mL (≈ 0.354 µM)

## COc1ccccc1C1C2CCCN2C2(C(=O)Nc3ccccc32)C1C(=O)c1ccc(-c2ccc(F)cc2F)cc1 (stereo unspecified)
[30]
  MIC: 12.5 µg/mL (≈ 22.7 µM)
[31]
  MIC: 12.5 µg/mL (≈ 22.7 µM)
[32]
  MIC: 12.5 µg/mL (≈ 22.7 µM)
